According to publication PMC6886544:
“And” between values parts separate entries of the source, which are not always exact repeats. Equal entries are not always repeated. Where two headings read alike, the source gives them in different places.

Columns and labels:
A549 cells (KRAS mutant) = assay: CellTiter-Glo viability assay, A549; conditions: Homo sapiens, A549, 96 h, read-out: KRAS CTG EC50 A549
H358 cells (KRAS mutant) = assay: CellTiter-Glo viability assay, H358; type: cell-based; conditions: Homo sapiens, NCI-H358; H358, 96 hours, CellTiter-Glo; read-out: KRAS CTG EC50 H358;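 also: viable cell number estimated from ATP-dependent luminescence following exposure to serially diluted inhibitor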
[1] = tested on: A431 cells (EGFR wild type); assay: CellTiter-Glo viability assay, A431; conditions: Homo sapiens, A-431, 96 h, read-out: EGFR CTG EC50 A431, A431, 96 hours, CellTiter-Glo
[2] = tested on: H1975 cells (EGFR-L858R/T790M); assay: CellTiter-Glo viability assay, H1975
[3] = tested on: HCC827 cells (EGFR-delE746_A750); assay: CellTiter-Glo viability assay, HCC827; type: cell-based; conditions: Homo sapiens; HCC827, 96 hours, CellTiter-Glo; read-out: EGFR CTG EC50 HCC827;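 also: luminescence from ATP content as a measure of metabolically active cells, in RPMI with 10% FBS, compound added as serial dilutions after 24 h of preculture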
EGFR-L858R/T790M = EGFR-L858R/T790M (Homo sapiens, UniProt P00533, L858R/T790M); assay: HTRF KinEASE-TK activity-based assay, EGFR-L858R/T790M
EGFR-wt = EGFR-wt (Homo sapiens, UniProt P00533); assay: HTRF KinEASE-TK activity-based assay, EGFR-wt
EGFR-L858R = EGFR-L858R (Homo sapiens, UniProt P00533, L858R); assay: HTRF KinEASE-TK activity-based assay, EGFR-L858R
[4] = Homo sapiens, NCI-H1975, 96 h, read-out: EGFR CTG EC50 H1975, H1975, 96 hours, CellTiter-Glo
[5] = EGFR HTRF IC50 L858R/T790M, ATP at Km (4 µM), 30 min preincubation, mean ± SD of three independent measurements in duplicates
[6] = EGFR HTRF IC50 wt, ATP at Km (9.5 µM), 30 min preincubation, mean ± SD of three independent measurements in duplicates
[7] = read-out: EGFR CTG EC50 H1975, H1975, 96 hours, CellTiter-Glo

EGFR-wt, sequence (P00533 25-1210): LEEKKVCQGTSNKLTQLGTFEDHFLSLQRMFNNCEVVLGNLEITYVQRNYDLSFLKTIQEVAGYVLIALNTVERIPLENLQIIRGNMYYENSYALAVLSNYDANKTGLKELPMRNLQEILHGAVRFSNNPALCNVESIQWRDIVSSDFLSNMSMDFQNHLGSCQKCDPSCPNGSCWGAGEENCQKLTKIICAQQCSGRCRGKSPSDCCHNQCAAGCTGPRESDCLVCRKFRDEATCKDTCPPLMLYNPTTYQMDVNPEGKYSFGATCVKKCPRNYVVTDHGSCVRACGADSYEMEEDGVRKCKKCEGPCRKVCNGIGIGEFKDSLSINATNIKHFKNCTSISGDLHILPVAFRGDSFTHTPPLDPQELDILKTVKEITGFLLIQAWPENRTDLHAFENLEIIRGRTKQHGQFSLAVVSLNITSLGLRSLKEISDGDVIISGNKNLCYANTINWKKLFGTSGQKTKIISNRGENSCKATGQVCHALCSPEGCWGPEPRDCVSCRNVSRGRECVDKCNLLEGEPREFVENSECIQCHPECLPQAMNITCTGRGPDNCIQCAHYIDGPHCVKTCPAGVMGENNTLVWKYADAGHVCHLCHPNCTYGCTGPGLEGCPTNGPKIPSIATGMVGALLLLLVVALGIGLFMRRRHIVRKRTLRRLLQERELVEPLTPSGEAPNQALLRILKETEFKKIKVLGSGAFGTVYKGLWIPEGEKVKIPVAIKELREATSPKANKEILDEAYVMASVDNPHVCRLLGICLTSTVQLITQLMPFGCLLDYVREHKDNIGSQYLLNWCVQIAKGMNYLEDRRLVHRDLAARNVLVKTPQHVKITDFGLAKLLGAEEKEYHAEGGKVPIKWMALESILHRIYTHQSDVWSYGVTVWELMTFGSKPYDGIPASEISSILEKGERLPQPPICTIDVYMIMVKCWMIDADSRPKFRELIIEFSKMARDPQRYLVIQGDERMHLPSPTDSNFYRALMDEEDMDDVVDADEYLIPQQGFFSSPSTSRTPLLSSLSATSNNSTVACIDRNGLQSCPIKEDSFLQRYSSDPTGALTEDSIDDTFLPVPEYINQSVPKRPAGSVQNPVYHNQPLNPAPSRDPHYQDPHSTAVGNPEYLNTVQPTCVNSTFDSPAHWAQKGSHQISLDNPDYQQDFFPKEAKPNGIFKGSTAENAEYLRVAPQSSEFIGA
EGFR-L858R, sequence (P00533 25-1210 L858R): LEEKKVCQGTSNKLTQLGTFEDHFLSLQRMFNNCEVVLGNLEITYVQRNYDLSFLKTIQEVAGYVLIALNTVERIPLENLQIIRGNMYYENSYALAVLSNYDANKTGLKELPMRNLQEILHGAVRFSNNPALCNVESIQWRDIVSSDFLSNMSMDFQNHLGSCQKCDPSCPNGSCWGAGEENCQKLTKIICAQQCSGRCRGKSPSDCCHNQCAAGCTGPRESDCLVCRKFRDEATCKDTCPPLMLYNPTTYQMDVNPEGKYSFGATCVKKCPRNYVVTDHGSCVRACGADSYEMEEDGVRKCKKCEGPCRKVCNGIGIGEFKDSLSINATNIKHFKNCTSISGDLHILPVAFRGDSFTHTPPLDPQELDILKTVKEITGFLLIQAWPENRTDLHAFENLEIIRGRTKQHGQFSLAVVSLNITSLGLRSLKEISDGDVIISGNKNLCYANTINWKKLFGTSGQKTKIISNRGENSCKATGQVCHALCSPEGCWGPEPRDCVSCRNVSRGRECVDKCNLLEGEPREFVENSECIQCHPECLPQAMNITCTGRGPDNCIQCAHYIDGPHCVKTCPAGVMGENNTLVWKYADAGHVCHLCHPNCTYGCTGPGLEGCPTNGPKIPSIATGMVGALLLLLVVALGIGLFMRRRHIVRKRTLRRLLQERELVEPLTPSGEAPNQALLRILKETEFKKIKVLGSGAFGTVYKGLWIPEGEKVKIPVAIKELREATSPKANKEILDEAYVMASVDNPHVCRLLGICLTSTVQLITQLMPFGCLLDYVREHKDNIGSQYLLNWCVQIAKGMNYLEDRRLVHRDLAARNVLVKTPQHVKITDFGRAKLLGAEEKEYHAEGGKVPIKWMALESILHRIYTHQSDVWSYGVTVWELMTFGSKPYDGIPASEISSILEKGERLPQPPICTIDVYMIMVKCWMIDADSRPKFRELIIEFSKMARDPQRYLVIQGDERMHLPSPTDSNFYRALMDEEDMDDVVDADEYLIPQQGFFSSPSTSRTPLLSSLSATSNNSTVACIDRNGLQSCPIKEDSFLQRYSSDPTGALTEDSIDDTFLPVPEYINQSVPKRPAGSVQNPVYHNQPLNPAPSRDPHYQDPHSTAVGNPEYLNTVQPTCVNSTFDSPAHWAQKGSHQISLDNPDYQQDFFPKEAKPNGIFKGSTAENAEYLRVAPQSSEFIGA
EGFR-L858R/T790M, sequence (P00533 25-1210 T790M/L858R): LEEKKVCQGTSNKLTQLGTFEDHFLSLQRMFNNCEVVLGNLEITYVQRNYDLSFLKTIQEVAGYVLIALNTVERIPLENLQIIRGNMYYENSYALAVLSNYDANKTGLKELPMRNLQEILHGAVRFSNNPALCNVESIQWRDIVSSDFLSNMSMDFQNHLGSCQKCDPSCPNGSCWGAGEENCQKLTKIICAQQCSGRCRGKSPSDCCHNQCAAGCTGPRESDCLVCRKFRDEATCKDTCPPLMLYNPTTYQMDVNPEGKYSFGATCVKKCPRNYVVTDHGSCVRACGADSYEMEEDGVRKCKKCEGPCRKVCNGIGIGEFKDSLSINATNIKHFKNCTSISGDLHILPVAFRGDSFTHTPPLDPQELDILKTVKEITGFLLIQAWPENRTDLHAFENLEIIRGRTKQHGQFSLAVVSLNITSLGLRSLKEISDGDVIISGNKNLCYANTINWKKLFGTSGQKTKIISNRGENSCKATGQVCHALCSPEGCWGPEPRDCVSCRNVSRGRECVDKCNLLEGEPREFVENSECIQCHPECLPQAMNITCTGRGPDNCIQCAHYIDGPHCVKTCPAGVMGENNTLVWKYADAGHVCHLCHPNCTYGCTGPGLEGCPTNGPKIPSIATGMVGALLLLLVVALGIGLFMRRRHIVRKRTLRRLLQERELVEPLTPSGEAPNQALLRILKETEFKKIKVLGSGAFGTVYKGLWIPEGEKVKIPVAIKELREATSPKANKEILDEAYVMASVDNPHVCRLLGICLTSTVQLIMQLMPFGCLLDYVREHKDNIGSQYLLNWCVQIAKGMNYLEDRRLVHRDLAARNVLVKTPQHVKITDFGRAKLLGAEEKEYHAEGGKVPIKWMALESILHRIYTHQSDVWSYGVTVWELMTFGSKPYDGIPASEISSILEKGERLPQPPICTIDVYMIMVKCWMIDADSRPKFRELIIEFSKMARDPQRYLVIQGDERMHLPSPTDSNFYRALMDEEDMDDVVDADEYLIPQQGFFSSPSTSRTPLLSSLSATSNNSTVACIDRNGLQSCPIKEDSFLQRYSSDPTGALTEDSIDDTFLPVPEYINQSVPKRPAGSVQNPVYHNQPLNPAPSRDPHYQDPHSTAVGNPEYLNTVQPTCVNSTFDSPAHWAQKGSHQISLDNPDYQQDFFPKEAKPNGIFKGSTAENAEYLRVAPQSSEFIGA

| EC50 (A549 cells (KRAS mutant)) [nM] | EC50 (H358 cells (KRAS mutant)) [nM] | EC50 [1] [nM] | EC50 [2, 4] [nM] | EC50 [3] [nM] | IC50 (EGFR-L858R/T790M; [5]) | IC50 (EGFR-L858R/T790M; IC50 gatekeeper mutant EGFR, rounded value) [nM] | IC50 (EGFR-wt; [6]) [nM] | IC50 (EGFR-wt; IC50 EGFR-wt, rounded value) [nM] | IC50 (EGFR-L858R) [nM] | EC50 ([2]; Homo sapiens, NCI-H1975, read-out: EC50 / potency in H1975 cells, H1975, rounded value in running text) [nM] | EC50 [2, 7] [nM] | SMILES |
| --- | --- | --- | --- | --- | --- | --- | --- | --- | --- | --- | --- | --- |
| 3970 ± 720 | 3780 ± 383 | 1790 ± 1090 | 4680 ± 1030 | 16 ± 3 |  |  |  |  |  |  |  | CCN1CCN(Cc2ccc(-c3cc4c(N[C@H](C)c5ccccc5)ncnc4[nH]3)cc2)CC1 [AEE788, reference compound] |
| 956 | 1100 |  | ~300 | < 14 | < 0.1 nM |  | 0.2 ± 0.1 |  | < 0.1 |  | 298 ± 251 | C=CC(=O)Nc1cc(-c2c(-c3ccc(N4CCN(C)CC4)cc3)[nH]c3ncnc(OC)c23)ccc1OCCOC [Compound 20a] |
| 8820 ± 697 | 9510 ± 403 | 1140 ± 350 | < 200 | 82 ± 20 | 0.5 nM |  | 1.2 ± 0.1 |  | 0.5 |  | 188 ± 64 | C=CC(=O)Nc1cccc(-c2c(-c3ccc(N4CCN(C)CC4)cc3)[nH]c3ncn(C)c(=O)c23)c1 [Compound 29a] |
| 1390 | 2040 | 1020 ± 335 | 183 ± 48 | 22 ± 2 | 4.9 ± 1.3 nM |  | 5.1 ± 0.1 |  | 4 ± 2.7 |  |  | C#CCn1cnc2[nH]c(-c3ccc(N4CCN(C)CC4)cc3)c(-c3cccc(NC(=O)C=C)c3)c2c1=O [Compound 29c] |
| 2970 ± 1070 | 3270 ± 693 | 767 ± 151 | 550 ± 157 | < 14 | 4.5 ± 0.8 nM |  | 0.2 |  | 0.3 ± 0.3 |  |  | C=CC(=O)Nc1cccc(-c2c(-c3ccc(N4CCN(C)CC4)cc3)[nH]c3ncn(CCCC)c(=O)c23)c1 [Compound 29d] |
| 22400 ± 11200 | > 30000 | 1870 ± 595 | 723 ± 188 | < 14 | 0.9 ± 0.1 nM |  | 0.4 ± 0.1 |  | 0.1 ± 0.1 |  |  | C=CC(=O)Nc1cccc(-c2c(-c3ccc(N4CCN(C)CC4)cc3)[nH]c3ncn(CCSC)c(=O)c23)c1 [Compound 29e] |
| 24700 ± 7550 | 11900 |  |  | 134 | 20 ± 6 nM |  | 4.6 ± 1.1 |  | 1.7 ± 0.5 |  |  | C=CC(=O)Nc1cccc(-c2c(-c3ccc(N4CCN(C)CC4)cc3)[nH]c3ncn(CCCSC)c(=O)c23)c1 [Compound 29f] |
| 6140 ± 2120 | 6840 ± 866 | 1100 ± 506 | 686 ± 199 | 45 ± 7 | > 1 nM and 3.4 nM |  | 0.8 ± 0.2 |  | 0.2 ± 0.1 |  |  | C=CC(=O)Nc1cccc(-c2c(-c3ccc(N4CCN(C)CC4)cc3)[nH]c3ncn(CC(C)C)c(=O)c23)c1 [Compound 29h] |
| 1380 ± 985 | 1790 ± 520 | 453 ± 218 | 228 ± 73 | < 14 | > 1 nM and 7.7 nM |  | 1.1 ± 0.8 |  | 0.9 ± 0.6 |  |  | C=CC(=O)Nc1cccc(-c2c(-c3ccc(N4CCN(C)CC4)cc3)[nH]c3ncn(CC4CC4)c(=O)c23)c1 [Compound 29k] |
| 25200 ± 8250 | > 30000 | 1080 ± 169 | 1570 ± 260 | 44 ± 26 | > 1 nM and 21 nM |  | 1 ± 0.2 |  | 1.5 ± 0.8 |  |  | C=CC(=O)Nc1cccc(-c2c(-c3ccc(N4CCN(C)CC4)cc3)[nH]c3ncn(Cc4ccccc4)c(=O)c23)c1 [Compound 29l] |
|  |  | 4380 ± 1390 | 296 ± 64 | < 14 |  |  |  |  |  |  |  | Cc1cc(C(=O)Nc2nc3cccc(Cl)c3n2[C@@H]2CCCCN(C(=O)/C=C/CN(C)C)C2)ccn1 [EGF816, nazartinib, reference compound] |

More lines, now with the values behind:

| SMILES | EC50 (A549 cells (KRAS mutant)) [nM] | EC50 (H358 cells (KRAS mutant)) [nM] | EC50 [1] [nM] | EC50 [2, 4] [nM] | EC50 [3] [nM] | IC50 (EGFR-L858R/T790M; [5]) | IC50 (EGFR-L858R/T790M; IC50 gatekeeper mutant EGFR, rounded value) [nM] | IC50 (EGFR-wt; [6]) [nM] | IC50 (EGFR-wt; IC50 EGFR-wt, rounded value) [nM] | IC50 (EGFR-L858R) [nM] | EC50 ([2]; Homo sapiens, NCI-H1975, read-out: EC50 / potency in H1975 cells, H1975, rounded value in running text) [nM] | EC50 [2, 7] [nM] |
| --- | --- | --- | --- | --- | --- | --- | --- | --- | --- | --- | --- | --- |
| CCC(=O)Nc1cccc(-c2c(-c3ccccc3)[nH]c3ncnc(OC)c23)c1 [Compound 1b] | > 30000 | > 30000 | > 30000 | > 30000 |  | 3960 ± 614 nM | 4000 | 5370 ± 1920 | 5000 | 1700 ± 747 |  |  |
| C=CC(=O)Nc1cccc(-c2c[nH]c3ncnc(OC)c23)c1 [Compound 9] | 13600 ± 1400 | 24500 ± 4870 |  | 9910 ± 3390 | 2170 ± 968 | < 100 nM and 31 nM |  | 82 ± 4 |  | 14 ± 2 |  |  |
| COc1ncnc2[nH]c(-c3ccc(C)cc3)c(-c3cccc(NC(=O)C=CCN4CCCCC4)c3)c12 [Compound 10c] | 4480 ± 896 | 4250 ± 336 | 2750 ± 1220 | 1900 ± 269 | 253 ± 1 | 158 ± 16 nM |  | 220 ± 57 |  | 197 ± 11 | ~2000 |  |
| CCC(=O)Nc1cccc(-c2c(-c3ccc(CN4CCN(C)CC4)cc3)[nH]c3ncnc(OC)c23)c1 [Compound 17b] | 5730 ± 1430 | 10300 ± 2170 | 5670 ± 60 | 9610 ± 1120 | 1520 ± 399 | 302 ± 84 nM |  | 460 ± 162 |  | 116 ± 57 |  |  |
| C=CC(=O)Nc1cccc(-c2c(-c3ccc(N4CCN(C)CC4)cc3)[nH]c3ncnc(OC)c23)c1 [Compound 19a] | 840 ± 289 | 1670 ± 721 | 638 ± 247 | 60 ± 8 | < 14 | 0.2 nM |  | 0.4 |  | 0.1 |  |  |
| CCC(=O)Nc1cccc(-c2c(-c3ccc(N4CCN(C)CC4)cc3)[nH]c3ncn(C)c(=O)c23)c1 [Compound 19b] | 6260 ± 1090 | 10200 ± 2240 | 9730 ± 4020 |  | 1790 ± 727 | 305 ± 192 nM |  | 996 ± 395 |  | 147 ± 97 |  |  |
| C=CC(=O)Nc1cccc(-c2c(-c3ccc(N4CCN(C)CC4)cc3)[nH]c3ncnc(OCC)c23)c1 [Compound 19c] | 1020 ± 46 | 1660 ± 759 | 759 ± 394 | 64 ± 25 | < 14 | 0.1 ± 0.1 nM |  | 0.2 ± 0.1 |  | < 0.1 |  |  |
| C=CC(=O)Nc1cccc(-c2c(-c3ccc(N4CCN(C)CC4)cc3)[nH]c3ncnc(OCCCSC)c23)c1 [Compound 19e] | 3010 ± 916 | 2570 ± 338 | 3680 ± 500 | 281 ± 88 | < 14 | 0.1 ± 0.1 nM |  | 0.2 |  | < 0.1 |  |  |
| C=CC(=O)Nc1cccc(-c2c(-c3ccc(N4CCN(C)CC4)cc3)[nH]c3nc[nH]c(=O)c23)c1 [Compound 19i] | > 30000 | > 30000 |  |  | 557 ± 266 | 24 ± 12 nM |  | 12 ± 4 |  | 12 ± 4 |  |  |
| C=CC(=O)Nc1cccc(Nc2nc(Nc3ccc(N4CCN(C(C)=O)CC4)cc3OC)ncc2C(F)(F)F)c1 [Rociletinib, rociletinib, reference compound] |  |  | 1910 ± 467 | 145 ± 86 | 45 ± 11 |  |  |  |  |  |  |  |
